Test system: NHBE cells
Experiment: Biolog metabolic array: substrate use by NHBE cells with or without CA09 infection
Format: cell-based, human
Conditions: for Substrate use, 590 nm absorbance normalized to zero hour, 1 hr: Biolog PMM2, 1 hr; for Substrate use, 590 nm absorbance normalized to zero hour, 5 hr: Biolog PMM2, 5 hr; for Substrate use, 590 nm absorbance normalized to zero hour, 7 hr: Biolog PMM2, 7 hr
[1] = Control (uninfected) NHBE cells
[2] = Virus (CA09-infected, MOI 1) NHBE cells
[3] = Virus: CA09-infected NHBE cells, MOI 1, Biolog PMM2
[4] = Virus (CA09-infected NHBE cells, MOI 1)

Row | SMILES | 590 nm absorbance normalized to zero hour (substrate use), 1 hr [1] | 590 nm absorbance normalized to zero hour (substrate use), 2 hr [1] | 590 nm absorbance normalized to zero hour (substrate use), 3 hr [1] | 590 nm absorbance normalized to zero hour (substrate use), 4 hr [1] | 590 nm absorbance normalized to zero hour (substrate use), 6 hr [1] | 590 nm absorbance normalized to zero hour (substrate use), 8 hr [1] | 590 nm absorbance normalized to zero hour (substrate use), 9 hr [1] | 590 nm absorbance normalized to zero hour (substrate use), 10 hr [1] | 590 nm absorbance normalized to zero hour (substrate use), 11 hr [1] | Substrate use, 590 nm absorbance normalized to zero hour, 1 hr [1] | Substrate use, 590 nm absorbance normalized to zero hour, 5 hr [1] | Substrate use, 590 nm absorbance normalized to zero hour, 7 hr [1] | 590 nm absorbance normalized to zero hour (substrate use), 1 hr [3] | 590 nm absorbance normalized to zero hour (substrate use), 2 hr [3] | 590 nm absorbance normalized to zero hour (substrate use), 3 hr [3] | 590 nm absorbance normalized to zero hour (substrate use), 4 hr [3] | 590 nm absorbance normalized to zero hour (substrate use), 5 hr [3] | 590 nm absorbance normalized to zero hour (substrate use), 6 hr [3] | 590 nm absorbance normalized to zero hour (substrate use), 7 hr [3] | 590 nm absorbance normalized to zero hour (substrate use), 8 hr [3] | also measured
1 | COC(=O)CCC(=O)O [Mono Methyl Succinate] | 1.07 | 1.14 | 1.10 | 1.10 | 0.53 | 1.09 | 1.11 | 1.11 | 1.11 | 1.07 | 1.13 | 1.07 | 1.44 | 1.71 | 1.97 | 2.04 | 2.16 | 2.33 | 2.40 | 2.45 | 590 nm absorbance normalized to zero hour (substrate use), 1 hr [2]: 1.44; 590 nm absorbance normalized to zero hour (substrate use), 2 hr [2]: 1.71; 590 nm absorbance normalized to zero hour (substrate use), 3 hr [2]: 1.97; 590 nm absorbance normalized to zero hour (substrate use), 4 hr [2]: 2.04; 590 nm absorbance normalized to zero hour (substrate use), 5 hr [2]: 2.16; 590 nm absorbance normalized to zero hour (substrate use), 6 hr [2]: 2.33; 590 nm absorbance normalized to zero hour (substrate use), 7 hr [2]: 2.40; 590 nm absorbance normalized to zero hour (substrate use), 8 hr [2]: 2.45; 590 nm absorbance normalized to zero hour (substrate use), 9 hr [2]: 2.58; 590 nm absorbance normalized to zero hour (substrate use), 10 hr [2]: 2.55; 590 nm absorbance normalized to zero hour (substrate use), 11 hr [2]: 2.67; 590 nm absorbance normalized to zero hour (substrate use), 9 hr [3]: 2.58; 590 nm absorbance normalized to zero hour (substrate use), 10 hr [3]: 2.55; 590 nm absorbance normalized to zero hour (substrate use), 11 hr [3]: 2.67
2 | Cc1cn([C@H]2C[C@H](O)[C@@H](CO)O2)c(=O)[nH]c1=O [Thymidine] | 1.65 | 1.61 | 1.67 | 1.64 | 0.92 | 0.62 | 1.52 | 1.43 | 0.81 | 1.65 | 1.75 | 0.61 | 1.52 | 2.29 | 2.27 | 2.32 | 2.34 | 2.33 | 2.34 | 2.26 | 590 nm absorbance normalized to zero hour (substrate use), 1 hr [2]: 1.52; 590 nm absorbance normalized to zero hour (substrate use), 2 hr [2]: 2.29; 590 nm absorbance normalized to zero hour (substrate use), 3 hr [2]: 2.27; 590 nm absorbance normalized to zero hour (substrate use), 4 hr [2]: 2.32; 590 nm absorbance normalized to zero hour (substrate use), 5 hr [2]: 2.34; 590 nm absorbance normalized to zero hour (substrate use), 6 hr [2]: 2.33; 590 nm absorbance normalized to zero hour (substrate use), 7 hr [2]: 2.34; 590 nm absorbance normalized to zero hour (substrate use), 8 hr [2]: 2.26; 590 nm absorbance normalized to zero hour (substrate use), 9 hr [2]: 2.28; 590 nm absorbance normalized to zero hour (substrate use), 10 hr [2]: 0.94; 590 nm absorbance normalized to zero hour (substrate use), 11 hr [2]: 2.21; 590 nm absorbance normalized to zero hour (substrate use), 9 hr [3]: 2.28; 590 nm absorbance normalized to zero hour (substrate use), 10 hr [3]: 0.94; 590 nm absorbance normalized to zero hour (substrate use), 11 hr [3]: 2.21
3 | OC[C@@H]1OC(O)[C@@H](O)[C@H](O)[C@H]1O (stereo partly drawn) [L-Glucose] | 1.65 | 2.20 | 2.64 | 2.83 | 3.82 | 3.55 | 3.76 | 3.89 | 4.25 | 1.65 | 3.52 | 3.51 | 0.29 | 0.39 | 0.45 | 0.49 | 0.57 | 0.61 | 0.64 | 0.68 | 590 nm absorbance normalized to zero hour (substrate use), 0 hr [1]: 1.00; Substrate use, 590 nm absorbance normalized to zero hour, 0 hr (Control (uninfected) NHBE cells, Biolog PMM2, 0 hr): 1.00; 590 nm absorbance normalized to zero hour (substrate use), 0 hr [4]: 1.00; 590 nm absorbance normalized to zero hour (substrate use), 1 hr [4]: 0.29; 590 nm absorbance normalized to zero hour (substrate use), 2 hr [4]: 0.39; 590 nm absorbance normalized to zero hour (substrate use), 3 hr [4]: 0.45; 590 nm absorbance normalized to zero hour (substrate use), 4 hr [4]: 0.49; 590 nm absorbance normalized to zero hour (substrate use), 5 hr [4]: 0.57; 590 nm absorbance normalized to zero hour (substrate use), 6 hr [4]: 0.61; 590 nm absorbance normalized to zero hour (substrate use), 7 hr [4]: 0.64; 590 nm absorbance normalized to zero hour (substrate use), 8 hr [4]: 0.68; 590 nm absorbance normalized to zero hour (substrate use), 9 hr [4]: 0.76; 590 nm absorbance normalized to zero hour (substrate use), 10 hr [4]: 0.76; 590 nm absorbance normalized to zero hour (substrate use), 11 hr [4]: 0.86; 590 nm absorbance normalized to zero hour (substrate use), 0 hr [3]: 1.00; 590 nm absorbance normalized to zero hour (substrate use), 9 hr [3]: 0.76; 590 nm absorbance normalized to zero hour (substrate use), 10 hr [3]: 0.76; 590 nm absorbance normalized to zero hour (substrate use), 11 hr [3]: 0.86

Source: patent US11083725B2 (priority 2014, dated 2021)
